#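 How tested: cells in 96-well plates exposed to compound for 48 hours at five concentrations. TGI denotes the concentration required for complete inhibition of growth.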
# Tests used:
# Experiment in all cases: growth of human tumour cells (NCI), 48 h
# EKVX NSCLC = test system: EKVX NSCLC
# T-47D breast = test system: T-47D breast
# UACC-257 melanoma = test system: UACC-257 melanoma
# SK-MEL-5 melanoma = test system: SK-MEL-5 melanoma
# RXF 393 renal = test system: RXF 393 renal
# COLO 205 colon = test system: COLO 205 colon
# UO-31 renal = test system: UO-31 renal
# HT29 colon = test system: HT29 colon
# MDA-N = test system: MDA-N
# MCF7 breast = test system: MCF7 breast
# NCI-H23 lung = test system: NCI-H23 lung
# SF-295 CNS = test system: SF-295 CNS
# 786-0 renal = test system: 786-0 renal
# KM12 colon = test system: KM12 colon
# A498 renal = test system: A498 renal
# TK-10 renal = test system: TK-10 renal
# CAKI-1 renal = test system: CAKI-1 renal
# RPMI-8226 leukemia = test system: RPMI-8226 leukemia
# NCI-H226 lung = test system: NCI-H226 lung
# HCT-15 colon = test system: HCT-15 colon
# NCI/ADR-RES ovarian = test system: NCI/ADR-RES ovarian
# SK-MEL-2 melanoma = test system: SK-MEL-2 melanoma
# SK-MEL-28 melanoma = test system: SK-MEL-28 melanoma
# DU-145 prostate = test system: DU-145 prostate
# UACC-62 melanoma = test system: UACC-62 melanoma
# SF-268 CNS = test system: SF-268 CNS
# IGROV1 ovarian = test system: IGROV1 ovarian
# MDA-MB-231 breast = test system: MDA-MB-231 breast
# K-562 leukemia = test system: K-562 leukemia
# SNB-75 CNS = test system: SNB-75 CNS
# PC-3 prostate = test system: PC-3 prostate
# LOX IMVI melanoma = test system: LOX IMVI melanoma
# MALME-3M melanoma = test system: MALME-3M melanoma
# SN12C renal = test system: SN12C renal
# HCC-2998 colon = test system: HCC-2998 colon
# SK-OV-3 ovarian = test system: SK-OV-3 ovarian
# HOP-62 NSCLC = test system: HOP-62 NSCLC
# BT-549 breast = test system: BT-549 breast
# SNB-19 CNS = test system: SNB-19 CNS
# CCRF-CEM leukemia = test system: CCRF-CEM leukemia
# A549 NSCLC = test system: A549 NSCLC
# OVCAR-5 ovarian = test system: OVCAR-5 ovarian
# ACHN renal = test system: ACHN renal
# SR leukemia = test system: SR leukemia
# SW-620 colon = test system: SW-620 colon
# U251 CNS = test system: U251 CNS
# MDA-MB-435 = test system: MDA-MB-435
# OVCAR-8 ovarian = test system: OVCAR-8 ovarian
# NCI-H460 lung = test system: NCI-H460 lung
# OVCAR-3 ovarian = test system: OVCAR-3 ovarian
# HCT-116 colon = test system: HCT-116 colon
# OVCAR-4 ovarian = test system: OVCAR-4 ovarian
# M14 melanoma = test system: M14 melanoma
# HOP-92 NSCLC = test system: HOP-92 NSCLC
# NCI-H522 lung = test system: NCI-H522 lung
# HL-60(TB) leukemia = test system: HL-60(TB) leukemia
# HS 578T breast = test system: HS 578T breast
# SF-539 CNS = test system: SF-539 CNS
# MOLT-4 leukemia = test system: MOLT-4 leukemia
smiles,measurement,setting,value
Cn1cnc([N+](=O)[O-])c1SCC(=O)O,TGI,EKVX NSCLC,> 100 µM
same,TGI,T-47D breast,> 100 µM
same,TGI,UACC-257 melanoma,> 100 µM
same,TGI,SK-MEL-5 melanoma,> 100 µM
same,TGI,RXF 393 renal,> 100 µM
same,TGI,COLO 205 colon,> 100 µM
same,TGI,UO-31 renal,> 100 µM
same,TGI,HT29 colon,> 100 µM
same,TGI,MDA-N,> 100 µM
same,TGI,MCF7 breast,> 100 µM
same,TGI,NCI-H23 lung,> 100 µM
same,TGI,SF-295 CNS,> 100 µM
same,TGI,786-0 renal,> 100 µM
same,TGI,KM12 colon,> 100 µM
same,TGI,A498 renal,> 100 µM
same,TGI,TK-10 renal,> 100 µM
same,TGI,CAKI-1 renal,> 100 µM
same,TGI,RPMI-8226 leukemia,> 100 µM
same,TGI,NCI-H226 lung,> 100 µM
same,TGI,HCT-15 colon,> 100 µM
same,TGI,NCI/ADR-RES ovarian,> 100 µM
same,TGI,SK-MEL-2 melanoma,> 100 µM
same,TGI,SK-MEL-28 melanoma,> 100 µM
same,TGI,DU-145 prostate,> 100 µM
same,TGI,UACC-62 melanoma,> 100 µM
same,TGI,SF-268 CNS,> 100 µM
same,TGI,IGROV1 ovarian,> 100 µM
same,TGI,MDA-MB-231 breast,> 100 µM
same,TGI,K-562 leukemia,> 100 µM
same,TGI,SNB-75 CNS,> 100 µM
same,TGI,PC-3 prostate,> 100 µM
same,TGI,LOX IMVI melanoma,> 100 µM
same,TGI,MALME-3M melanoma,> 100 µM
same,TGI,SN12C renal,> 100 µM
same,TGI,HCC-2998 colon,> 100 µM
same,TGI,SK-OV-3 ovarian,> 100 µM
same,TGI,HOP-62 NSCLC,> 100 µM
same,TGI,BT-549 breast,> 100 µM
same,TGI,SNB-19 CNS,> 100 µM
same,TGI,CCRF-CEM leukemia,> 100 µM
same,TGI,A549 NSCLC,> 100 µM
same,TGI,OVCAR-5 ovarian,> 100 µM
same,TGI,ACHN renal,> 100 µM
same,TGI,SR leukemia,> 100 µM
same,TGI,SW-620 colon,> 100 µM
same,TGI,U251 CNS,> 100 µM
same,TGI,MDA-MB-435,> 100 µM
same,TGI,OVCAR-8 ovarian,> 100 µM
same,TGI,NCI-H460 lung,> 100 µM
same,TGI,OVCAR-3 ovarian,> 100 µM
same,TGI,HCT-116 colon,> 100 µM
same,TGI,OVCAR-4 ovarian,> 100 µM
same,TGI,M14 melanoma,> 100 µM
same,TGI,HOP-92 NSCLC,> 100 µM
same,TGI,NCI-H522 lung,> 100 µM
same,TGI,HL-60(TB) leukemia,> 100 µM
same,TGI,HS 578T breast,> 100 µM
c1ccc([C@@H]2N[C@@]3(CO[Si](c4ccccc4)(c4ccccc4)c4ccccc4)CC[C@H]4CN[C@@H]2[C@H]43)cc1,TGI,EKVX NSCLC,29.5 µM
same,TGI,T-47D breast,16.7 µM
same,TGI,UACC-257 melanoma,27.5 µM
same,TGI,SK-MEL-5 melanoma,19.2 µM
same,TGI,RXF 393 renal,16.9 µM
same,TGI,COLO 205 colon,3.14 µM
same,TGI,UO-31 renal,22.8 µM
same,TGI,HT29 colon,7.17 µM
same,TGI,MDA-N,13.1 µM
same,TGI,MCF7 breast,11.5 µM
same,TGI,NCI-H23 lung,30.5 µM
same,TGI,SF-295 CNS,25 µM
same,TGI,786-0 renal,25.9 µM
same,TGI,SF-539 CNS,28.6 µM
same,TGI,KM12 colon,12.4 µM
same,TGI,A498 renal,30.4 µM
same,TGI,TK-10 renal,30.5 µM
same,TGI,CAKI-1 renal,25.4 µM
same,TGI,RPMI-8226 leukemia,13.8 µM
same,TGI,NCI-H226 lung,27.5 µM
same,TGI,HCT-15 colon,10.4 µM
same,TGI,NCI/ADR-RES ovarian,32.4 µM
same,TGI,SK-MEL-2 melanoma,35.3 µM
same,TGI,SK-MEL-28 melanoma,35.6 µM
same,TGI,DU-145 prostate,21.8 µM
same,TGI,UACC-62 melanoma,28.2 µM
same,TGI,SF-268 CNS,22.6 µM
same,TGI,IGROV1 ovarian,26.7 µM
same,TGI,MDA-MB-231 breast,25.9 µM
same,TGI,K-562 leukemia,> 100 µM
same,TGI,PC-3 prostate,21.3 µM
same,TGI,LOX IMVI melanoma,24 µM
same,TGI,MOLT-4 leukemia,> 100 µM
same,TGI,MALME-3M melanoma,2.65 µM
same,TGI,SN12C renal,27.1 µM
same,TGI,HCC-2998 colon,3.05 µM
same,TGI,SK-OV-3 ovarian,30.3 µM
same,TGI,HOP-62 NSCLC,31.2 µM
same,TGI,BT-549 breast,35.3 µM
same,TGI,SNB-19 CNS,31.5 µM
same,TGI,CCRF-CEM leukemia,> 100 µM
same,TGI,A549 NSCLC,26.1 µM
same,TGI,OVCAR-5 ovarian,31 µM
same,TGI,ACHN renal,26.6 µM
same,TGI,SR leukemia,> 100 µM
same,TGI,SW-620 colon,11.7 µM
same,TGI,U251 CNS,30.9 µM
same,TGI,MDA-MB-435,20.8 µM
same,TGI,OVCAR-8 ovarian,28.7 µM
same,TGI,NCI-H460 lung,25 µM
same,TGI,OVCAR-3 ovarian,27 µM
same,TGI,HCT-116 colon,11.9 µM
same,TGI,OVCAR-4 ovarian,29.3 µM
same,TGI,M14 melanoma,17.4 µM
same,TGI,HOP-92 NSCLC,15.9 µM
same,TGI,NCI-H522 lung,16.1 µM
same,TGI,HL-60(TB) leukemia,21.3 µM
same,TGI,HS 578T breast,36.3 µM
